Source: patent US6723716B1, “7-acylamino-3-heteroarylthio-3-cephem carboxylic acid antibiotics and prodrugs thereof” (Essential Therapeutics, Inc., priority 1999, dated 2004)
In brackets after ≈: the same amount, converted by molar mass.

Key:
[1] = system: S. haemolyticus 05 (Meth^R); assay: Broth microdilution MIC (NCCLS); assay type: cell-based; conditions: Staphylococcus haemolyticus
Protocol: (§1) Compounds were evaluated for antimicrobial activity against a panel of bacterial strains using a broth microdilution assay performed as recommended by the NCCLS (1). The minimum inhibitory concentration (MIC) was defined as the lowest concentration of drug which prevented the growth of the bacteria.
(§2) For this primary panel, the assay was performed in Mueller-Hinton Broth (MHB) with a final bacterial inoculum of 5×10^5 CFU/mL (from an early-log phase culture) and a final volume of 100 μL. Control drugs, including imipenem, vancomycin, Penicillin G, dicloxacillin (vs. MSSA ATCC29213 only), and new compounds were prepared at a concentration equivalent to 2-fold the desired final concentration. Dilution of compounds were prepared directly in the plates by serial 2-fold dilution using a multichannel pipette. Positive and negative growth control were included in each plate.
(§3) The bacterial inocula were prepared as follows. For each strain one isolated colony was used to inoculate a volume of 8 mL of Mueller-Hinton broth and these cultures were incubated overnight (20 h) at 35° C. in a shaking incubator. At the exception of Enterococcus strains, culture were then diluted 1:10 and allowed to grow for an additional one hour at 35° C. in a shaking incubator. The inocula were prepared by diluting the early log-phase (1 h) cultures 1:1000 with fresh Mueller-Hinton broth. E. faecium and E. faecalis were prepared by diluting overnight cultures 1:333 and 1:666, respectively, with fresh Mueller-Hinton broth. A volume of 50 μL of the inocula was added to each well. […] The exact inocula were determined by applying 10 μL of 10-fold serial dilution of the bacterial suspensions on TSA. After overnight incubation at 35° C., colony forming units were manually counted.
(§4) Microtiter plates were incubated during 24 h at 35° C. and were read using a microtiterplate reader (Molecular Devices) at 650 nm as well as by visual observation using a microtiterplate reading mirror.

[2] = system: E. faecalis ATCC 29212; assay: Broth microdilution MIC (NCCLS); assay type: cell-based; conditions: Enterococcus faecalis, ATCC29212
Protocol: as §1, §2, §3, §4

[3] = system: S. aureus PC1 (Meth^S)(lac^+); assay: Broth microdilution MIC (NCCLS); assay type: cell-based; conditions: Staphylococcus aureus
Protocol: as §1, §2, §3, §4

[4] = system: S. aureus Col (Meth^R)(lac^−); assay: Broth microdilution MIC (NCCLS); assay type: cell-based; conditions: Staphylococcus aureus
Protocol: as §1, §2, §3, §4

[5] = system: E. coli ATCC25992; assay: Broth microdilution MIC (NCCLS); assay type: cell-based; conditions: Escherichia coli
Protocol: as §1, §2, §3, §4

[6] = system: E. faecalis VanB (Van^R); assay: Broth microdilution MIC (NCCLS); assay type: cell-based; conditions: Enterococcus faecalis
Protocol: as §1, §2, §3, §4

[7] = system: S. aureus Spain #356 (Meth^R); assay: Broth microdilution MIC (NCCLS); assay type: cell-based; conditions: Staphylococcus aureus, 24 h
Protocol: as §1, §2, §3, §4

[8] = system: P. aeruginosa ATCC 27853; assay: Broth microdilution MIC (NCCLS); assay type: cell-based; conditions: Pseudomonas aeruginosa, ATCC27853
Protocol: as §1, §2, §3, §4

[9] = system: S. aureus ATCC 33593 (Meth^R); assay: Broth microdilution MIC (NCCLS); assay type: cell-based; conditions: Staphylococcus aureus, ATCC33593
Protocol: as §1, §2, §3, §4

[10] = system: S. aureus 76 (Meth^R)(lac^+); assay: Broth microdilution MIC (NCCLS); assay type: cell-based; conditions: Staphylococcus aureus
Protocol: as §1, §2, §3, §4

[11] = system: E. faecium ATCC 35667; assay: Broth microdilution MIC (NCCLS); assay type: cell-based; conditions: Enterococcus faecium, ATCC35667
Protocol: as §1, §2, §3, §4

[12] = system: E. faecium A491 (Amp^R); assay: Broth microdilution MIC (NCCLS); assay type: cell-based; conditions: Enterococcus faecium
Protocol: as §1, §2, §3, §4

[13] = system: E. faecium VanA (Van^R); assay: Broth microdilution MIC (NCCLS); assay type: cell-based; conditions: Enterococcus faecium
Protocol: as §1, §2, §3, §4

[14] = system: S. aureus ATCC 29213; assay: Broth microdilution MIC (NCCLS); assay type: cell-based; conditions: Staphylococcus aureus, ATCC29213; S. aureus ATCC 29213; Mueller-Hinton broth, 24 h at 35° C.; read-out: MIC
Protocol: as §1, §2, §3, §4

[15] = system: S. aureus ATCC 13709 (Meth^S); assay: Broth microdilution MIC (NCCLS); assay type: cell-based; conditions: Staphylococcus aureus, ATCC13709, S. aureus ATCC 13709 (Meth^S); read-out: MIC
Protocol: as §1, §2, §3, §4

[16] = system: S. aureus ATCC29213; assay: Human serum binding effect: MIC with and without human serum; assay type: cell-based, Staphylococcus aureus; conditions: 1:1 human serum:MHB
Protocol: The approximate measurement of the degree of binding of the compound to human serum proteins can be achieved by determination of the effect of the addition of human serum to the medium in which the MIC values against a selected bacterial strain is determined. The ratio of the MIC value obtained in presence of added human serum to the MIC value determined without serum addition was used as a measure of serum binding and the results of such determination are presented below in Table 2.
In addition to the standard MIC determination described above, the staphylococcal strain ATCC29213 is also tested in a ratio 1:1, human serum:MHB to obtain a preliminary estimate of the bioactivity of test compounds in serum: The assay was performed in Human Serum and Mueller-Hinton Broth (HSMHB) with a final bacterial inoculum of 1×10^6 CFU/mL (from an early-log phase culture) and a final volume of 100 μL. Control drugs, including imipenem, vancomycin, dicloxacillin, and new compounds were prepared in double-concentrated Mueller-Hinton broth at a concentration equivalent to 4-fold the desired final concentration. Dilution of compounds were prepared directly in the plates by serial 2-fold dilution in double-concentrated Mueller-Hinton using a multichannel pipette. Positive and negative growth controls were included in each plate. […] The inoculum was prepared by diluting the early log-phase (1 h) culture 1:100 with fresh double-concentrated Mueller-Hinton broth. A volume of 25 μL of the inoculum was added to each well. […] The exact inoculum was determined by applying 10 μl of 10-fold serial dilution of the bacterial suspension on TSA. After overnight incubation at 35° C., colony forming units were manually counted.

| Structure (SMILES) | MIC [1] | MIC [2] | MIC [3] | MIC [4] | MIC [5] | MIC [6] | MIC [7] | MIC [8] | MIC [9] | MIC [10] | MIC [11] | MIC [12] | MIC [13] | MIC [14] | MIC [15] | Human serum binding effect (ratio of MIC value determined with and without human serum added) [16] |
| --- | --- | --- | --- | --- | --- | --- | --- | --- | --- | --- | --- | --- | --- | --- | --- | --- |
| NCCSc1cncc(SC2=C(C(=O)O)N3C(=O)C(NC(=O)/C(=N\O)c4cccc(N)n4)C3SC2)n1 (stereo not shown) [Cmpd 6] | 32 µg/mL (≈ 58.3 µM) | 2 µg/mL (≈ 3.65 µM) | 0.5 µg/mL (≈ 0.911 µM) | 16 µg/mL (≈ 29.2 µM) | 16 µg/mL (≈ 29.2 µM) | 4 µg/mL (≈ 7.29 µM) | 16 µg/mL (≈ 29.2 µM) | > 32 µg/mL | 8 µg/mL (≈ 14.6 µM) | 16 µg/mL (≈ 29.2 µM) | 8 µg/mL (≈ 14.6 µM) | > 32 µg/mL | 8 µg/mL (≈ 14.6 µM) | 0.5 µg/mL (≈ 0.911 µM) | 0.25 µg/mL (≈ 0.456 µM) | 128 |
| COc1nc(CSCCN)c(SC2=C(C(=O)O)N3C(=O)[C@@H](NC(=O)/C(=N\O)c4cccc(N)n4)[C@H]3SC2)s1 [Cmpd 5, (7R)-7-[(Z)-2-(2-aminopyrid-6-yl)-2-(hydroxyimino)acetamido]-3-[4-(2-aminoethylthiomethyl)-2-methoxy-1,3-thiazol-5-ylthio]-3-cephem-4-carboxylic acid] | 8 µg/mL (≈ 13.4 µM) | 0.5 µg/mL (≈ 0.837 µM) | 0.25 µg/mL (≈ 0.418 µM) | 4 µg/mL (≈ 6.69 µM) | 32 µg/mL (≈ 53.5 µM) | 1 µg/mL (≈ 1.67 µM) | 4 µg/mL (≈ 6.69 µM) | > 32 µg/mL | 4 µg/mL (≈ 6.69 µM) | 4 µg/mL (≈ 6.69 µM) | 4 µg/mL (≈ 6.69 µM) | > 32 µg/mL | 4 µg/mL (≈ 6.69 µM) | 0.25 µg/mL (≈ 0.418 µM) | 0.13 µg/mL (≈ 0.217 µM) | 4 |
| NCCSc1nccc(SC2=C(C(=O)O)N3C(=O)[C@@H](NC(=O)/C(=N\O)c4cccc(N)n4)[C@H]3SC2)n1 [Cmpd 8, (7R)-7-[(Z)-2-(2-aminopyrid-6-yl)-2-(hydroxyimino)acetamido]-3-[2-(2-aminoethylthio)-pyrimidin-4-ylthio]-3-cephem-4-carboxylic acid] | 32 µg/mL (≈ 58.3 µM) | 8 µg/mL (≈ 14.6 µM) | 1 µg/mL (≈ 1.82 µM) | 16 µg/mL (≈ 29.2 µM) | 16 µg/mL (≈ 29.2 µM) | 16 µg/mL (≈ 29.2 µM) | 16 µg/mL (≈ 29.2 µM) | > 32 µg/mL | 8 µg/mL (≈ 14.6 µM) | 16 µg/mL (≈ 29.2 µM) | 16 µg/mL (≈ 29.2 µM) | > 32 µg/mL | 32 µg/mL (≈ 58.3 µM) | 1 µg/mL (≈ 1.82 µM) | 0.5 µg/mL (≈ 0.911 µM) | 128 |
| N=C(N)NCCSCc1nc(N)sc1SC1=C(C(=O)O)N2C(=O)[C@@H](NC(=O)/C(=N\O)c3nc(N)sc3Cl)[C@H]2SC1 [Cmpd 26, (7R)-7-[(Z)-2-(2-amino-5-chlorothiazol-4-yl)-2-(hydroxyimino)acetamido]-3-[4-(2-guanidinoethylthiomethyl)-2-amino-1,3-thiazol-5-ylthio]-3-cephem-4-carboxylic acid] | 0.5 µg/mL (≈ 0.752 µM) | 0.06 µg/mL (≈ 0.0902 µM) | 0.06 µg/mL (≈ 0.0902 µM) | 0.25 µg/mL (≈ 0.376 µM) | 4 µg/mL (≈ 6.01 µM) | 0.06 µg/mL (≈ 0.0902 µM) | 0.5 µg/mL (≈ 0.752 µM) | 4 µg/mL (≈ 6.01 µM) | 0.5 µg/mL (≈ 0.752 µM) | 0.5 µg/mL (≈ 0.752 µM) | 0.5 µg/mL (≈ 0.752 µM) | 16 µg/mL (≈ 24.1 µM) | 1 µg/mL (≈ 1.5 µM) | 0.06 µg/mL (≈ 0.0902 µM) | 0.06 µg/mL (≈ 0.0902 µM) | 2 |
